Test results reported in US10080742B2, “Isoxazole derivatives as FXR agonists and methods of use thereof” (Enanta Pharmaceuticals, Inc., priority 2016, dated 2018).

Molecular target: T1, human FXR (NR1H4) (Homo sapiens, UniProt Q96RI1)
T1 construct: host or cells: CHO (Chinese hamster ovary) reporter cells
T1 sequence (Q96RI1 1-486): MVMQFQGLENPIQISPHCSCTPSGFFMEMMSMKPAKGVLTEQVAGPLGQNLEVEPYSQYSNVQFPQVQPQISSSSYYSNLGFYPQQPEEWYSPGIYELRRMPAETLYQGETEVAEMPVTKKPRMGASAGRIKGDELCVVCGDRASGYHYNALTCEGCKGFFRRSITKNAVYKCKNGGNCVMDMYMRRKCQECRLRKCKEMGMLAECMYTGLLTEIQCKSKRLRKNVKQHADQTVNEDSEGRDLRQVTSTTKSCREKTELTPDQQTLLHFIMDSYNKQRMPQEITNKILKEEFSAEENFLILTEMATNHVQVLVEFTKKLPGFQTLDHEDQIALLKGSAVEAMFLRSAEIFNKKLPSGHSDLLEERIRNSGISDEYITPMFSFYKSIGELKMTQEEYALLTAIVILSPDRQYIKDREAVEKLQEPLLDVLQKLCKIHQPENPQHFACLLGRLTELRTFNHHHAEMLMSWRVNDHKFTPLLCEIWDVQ
Test: Human FXR (NR1H4) Assay (Gal4 promoter driven luciferase reporter, CHO cells)
Assay type: cell-based
Conditions: for EC50: FXR reporter assay in CHO cells expressing human NR1H4, 22 hours incubation, potency ranges; for Efficacy (%): normalized to CDCA set as 100%, FXR reporter assay in CHO cells
Description: Human FXR (NR1H4) Assay Determination of a ligand mediated Gal4 promoter driven transactivation to quantify ligand binding mediated activation of FXR. FXR Reporter Assay kit purchased from Indigo Bioscience (Catalogue number: IB00601) to determine the potency and efficacy of compound developed by Enanta that can induce FXR activation. The principle application of this reporter assay system is to quantify functional activity of human FXR. The assay utilizes non-human mammalian cells, CHO (Chinese hamster ovary) cells engineered to express human NR1H4 protein (referred to as FXR). Reporter cells also incorporate the cDNA encoding beetle luciferase which catalyzes the substrates and yields photon emission. Luminescence intensity of the reaction is quantified using a plate-reading luminometer, Envision. Reporter Cells include the luciferase reporter gene functionally linked to an FXR responsive promoter. Thus, quantifying changes in luciferase expression in the treated reporter cells provides a sensitive surrogate measure of the changes in FXR activity. […] The assay is according to the manufacturer's instructions. In brief, the assay was performed in white, 96 well plates using final volume of 100 ul containing cells with different doses of compounds. Retrieve Reporter Cells from −80° C. storage. Perform a rapid thaw of the frozen cells by transferring a 10 ml volume of 37° C. cell recovery medium into the tube of frozen cells. Recap the tube of Reporter Cells and immediately place it in a 37° C. water bath for 5-10 minutes. Retrieve the tube of Reporter Cell Suspension from the water bath. Sanitize the outside surface of the tube with a 70% alcohol swab, and then transfer it into the cell culture hood. Dispense 90 μl of cell suspension into each well of the 96-well Assay Plate. Transfer the plate into 37° C. incubator, allowing the cells adherent to the bottom of the well. Dilute compounds in Dilution Plate (DP), and administrate to cells at Assay Plate (AP). DMSO content of the samples was kept at 0.2%. Cells were incubated for additional 22 hours before luciferase activities were measured. Thirty minutes before intending to quantify FXR activity, remove Detection Substrate and Detection Buffer from the refrigerator and place them in a low-light area so that they may equilibrate to room temperature. Remove the plate's lid and discard all media contents by ejecting it into an appropriate waste container. Gently tap the inverted plate onto a clean absorbent paper towel to remove residual droplets. Cells will remain tightly adhered to well bottoms. Add 100 μl of luciferase detection reagent to each well of the assay plate. Allow the assay plate to rest at room temperature for at least 5 minutes following the addition of LDR. Set the instrument (Envision) to perform a single 5 second “plate shake” prior to reading the first assay well. Read time may be 0.5 second (500 mSec) per well.

EC50	Efficacy (%)	SMILES
100 to 1000 nM	122%	O=C(NS(=O)(=O)C1CC1)c1ccc2nc(N3CCC(OCc4c(-c5c(Cl)cccc5Cl)noc4C4CC4)CC3)sc2c1 [Example 11]
< 100 nM	304%	O=C(O)c1ccc2nc(N3CCC(OCc4c(-c5c(Cl)cccc5Cl)noc4C4CC4)CC3)sc2c1 [Compound (1), reference compound]
< 100 nM	129%	CN(C)S(=O)(=O)NC(=O)c1ccc2nc(N3CCC(OCc4c(-c5c(Cl)cccc5Cl)noc4C4CC4)CC3)sc2c1 [Example 26]
